Among the data in ChEMBL document CHEMBL3525902, “In vitro metabolism of oxymetazoline: evidence for bioactivation to a reactive metabolite” (Drug Metab Dispos, 2011) are Drug metabolism values, retold here.

For one data set, the target named is T1, Cytochrome P450 2B6 (Homo sapiens, UniProt P20813).
T1 sequence (P20813 whole entry): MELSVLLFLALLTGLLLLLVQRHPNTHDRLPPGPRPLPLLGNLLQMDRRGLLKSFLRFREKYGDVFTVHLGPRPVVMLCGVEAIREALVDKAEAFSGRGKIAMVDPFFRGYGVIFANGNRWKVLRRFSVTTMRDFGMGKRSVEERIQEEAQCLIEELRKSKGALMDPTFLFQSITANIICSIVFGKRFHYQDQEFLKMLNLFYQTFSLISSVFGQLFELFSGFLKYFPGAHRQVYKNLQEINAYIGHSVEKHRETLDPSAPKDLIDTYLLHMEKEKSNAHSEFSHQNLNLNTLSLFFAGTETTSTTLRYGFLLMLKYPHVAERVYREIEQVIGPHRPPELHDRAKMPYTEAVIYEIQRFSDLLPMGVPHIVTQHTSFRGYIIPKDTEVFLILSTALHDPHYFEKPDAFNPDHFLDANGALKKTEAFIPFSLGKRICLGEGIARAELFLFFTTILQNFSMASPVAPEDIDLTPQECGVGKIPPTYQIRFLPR
Briefly: Activity of human recombinant CYP2B6 assessed as metabolite formation at 50 uM in presence of NADPH by LC-MS/MS method. As to conditions: recombinant enzyme. It is filed as ADME.

The target in the next data set is Cytochrome P450 2C9 (Homo sapiens, UniProt P11712). Briefly: Activity of human recombinant CYP2C9 assessed as metabolite formation at 50 uM in presence of NADPH by LC-MS/MS method. It counts as ADME. The following applies: recombinant enzyme.
Another data set has as its target Cytochrome P450 2E1 (Homo sapiens, UniProt P05181). Briefly: Activity of human recombinant CYP2E1 assessed as metabolite formation at 50 uM in presence of NADPH by LC-MS/MS method. As to conditions: recombinant enzyme. It is filed as ADME.
For another data set, the target named is Cytochrome P450 2D6 (Homo sapiens, UniProt P10635). Briefly: Activity of human recombinant CYP2D6 assessed as metabolite formation at 50 uM in presence of NADPH by LC-MS/MS method. As to conditions: recombinant enzyme. It counts as ADME.
In the next data set the target is Cytochrome P450 3A4 (Homo sapiens, UniProt P08684). Briefly: Activity of human recombinant CYP3A4 assessed as metabolite formation at 50 uM in presence of NADPH by LC-MS/MS method. It is filed as ADME. As to conditions: recombinant enzyme.
Data set [1] can be described thus: Drug metabolism in NADPH supplemented rabbit liver S9 fraction assessed as 3-((4,5-dihydro-1H-imidazol-2-yl)methyl)-6-(1-hydroxy-2-methylpropan-2-yl)-2,4-dimethylphenol formation at 50 uM in presence of glutathione by LC-MS/MS method. It is filed as ADME, subcellular, Oryctolagus cuniculus. The following applies: s9, 50 µM.
A short description of data set [2]: Drug metabolism in NADPH supplemented rabbit liver S9 fraction assessed as 3-((1H-imidazol-2-yl)methyl)-6-(1-hydroxy-2-methylpropan-2-yl)-2,4-dimethylphenol formation at 50 uM in presence of glutathione by LC-MS/MS method. It is filed as ADME, subcellular, Oryctolagus cuniculus. As to conditions: s9, 50 µM.
Data set [3] is described as follows: Drug metabolism in NADPH supplemented rabbit liver S9 fraction assessed as 3-((1H-imidazol-2-yl)methyl)-6-tert-butyl-2,4-dimethylphenol formation at 50 uM in presence of N-acetyl cysteine by LC-MS/MS method. It counts as ADME, subcellular, Oryctolagus cuniculus. The following applies: s9, 50 µM.
The nature of data set [4]: Drug metabolism in NADPH supplemented rabbit liver microsomes fraction assessed as 3-((4,5-dihydro-1H-imidazol-2-yl)methyl)-6-(1-hydroxy-2-methylpropan-2-yl)-2,4-dimethylphenol formation at 50 uM after 1 hr by LC-MS/MS method. It counts as ADME, Oryctolagus cuniculus.
In data set [5] the test system is Liver microsome. Briefly: Drug metabolism in NADPH supplemented rat liver microsomes fraction assessed as 3-((4,5-dihydro-1H-imidazol-2-yl)methyl)-6-(1-hydroxy-2-methylpropan-2-yl)-2,4-dimethylphenol formation at 50 uM after 1 hr by LC-MS/MS method. It is filed as ADME. For orientation: Microsomes from liver hold many membrane-bound enzymes, among them those of drug oxidation.

Data set [6] relates to Liver microsome. The data set is described as follows: Drug metabolism in NADPH supplemented rat liver microsomes fraction assessed as 3-((1H-imidazol-2-yl)methyl)-6-(1-hydroxy-2-methylpropan-2-yl)-2,4-dimethylphenol formation at 50 uM after 1 hr by LC-MS/MS method. It is filed as ADME.
In data set [7] the test system is Liver microsome. The data set is described as follows: Drug metabolism in NADPH supplemented human liver microsomes fraction assessed as 3-((4,5-dihydro-1H-imidazol-2-yl)methyl)-6-(1-hydroxy-2-methylpropan-2-yl)-2,4-dimethylphenol formation at 50 uM after 1 hr by LC-MS/MS method. It is filed as ADME.
For data set [8], the system named is Liver microsome. Briefly: Drug metabolism in NADPH supplemented human liver microsomes fraction assessed as 3-((1H-imidazol-2-yl)methyl)-6-(1-hydroxy-2-methylpropan-2-yl)-2,4-dimethylphenol formation at 50 uM after 1 hr by LC-MS/MS method. It is filed as ADME.
The nature of data set [9]: Drug metabolism in NADPH supplemented human liver S9 fraction assessed as 3-((4,5-dihydro-1H-imidazol-2-yl)methyl)-6-(1-hydroxy-2-methylpropan-2-yl)-2,4-dimethylphenol formation at 50 uM in presence of glutathione by LC-MS/MS method. It is filed as ADME, subcellular. The following applies: s9, 50 µM.
Data set [10] in a line: Drug level in NADPH supplemented rabbit liver S9 fraction treated with 50 uM oxymetazoline assessed as compound-N-acetyl cysteine conjugate formation in presence of N-acetyl cysteine by LC-MS/MS method. It is filed as ADME, subcellular, Oryctolagus cuniculus.

The structures appear in SMILES notation.

Sequence of Cytochrome P450 2D6 (P10635 whole entry): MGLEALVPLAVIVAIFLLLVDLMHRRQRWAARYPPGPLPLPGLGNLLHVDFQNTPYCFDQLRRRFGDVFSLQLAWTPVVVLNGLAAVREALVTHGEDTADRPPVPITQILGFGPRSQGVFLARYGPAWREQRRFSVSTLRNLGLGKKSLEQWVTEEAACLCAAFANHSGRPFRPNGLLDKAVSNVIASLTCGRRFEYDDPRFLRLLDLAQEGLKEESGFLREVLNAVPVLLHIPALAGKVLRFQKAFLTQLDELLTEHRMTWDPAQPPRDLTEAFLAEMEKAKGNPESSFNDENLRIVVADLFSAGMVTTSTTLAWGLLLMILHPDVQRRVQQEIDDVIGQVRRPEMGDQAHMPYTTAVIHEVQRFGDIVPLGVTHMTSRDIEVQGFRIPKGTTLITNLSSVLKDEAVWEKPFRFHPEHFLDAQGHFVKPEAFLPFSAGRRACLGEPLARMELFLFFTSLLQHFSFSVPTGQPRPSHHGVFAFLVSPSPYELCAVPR
Sequence of Cytochrome P450 2E1 (P05181 whole entry): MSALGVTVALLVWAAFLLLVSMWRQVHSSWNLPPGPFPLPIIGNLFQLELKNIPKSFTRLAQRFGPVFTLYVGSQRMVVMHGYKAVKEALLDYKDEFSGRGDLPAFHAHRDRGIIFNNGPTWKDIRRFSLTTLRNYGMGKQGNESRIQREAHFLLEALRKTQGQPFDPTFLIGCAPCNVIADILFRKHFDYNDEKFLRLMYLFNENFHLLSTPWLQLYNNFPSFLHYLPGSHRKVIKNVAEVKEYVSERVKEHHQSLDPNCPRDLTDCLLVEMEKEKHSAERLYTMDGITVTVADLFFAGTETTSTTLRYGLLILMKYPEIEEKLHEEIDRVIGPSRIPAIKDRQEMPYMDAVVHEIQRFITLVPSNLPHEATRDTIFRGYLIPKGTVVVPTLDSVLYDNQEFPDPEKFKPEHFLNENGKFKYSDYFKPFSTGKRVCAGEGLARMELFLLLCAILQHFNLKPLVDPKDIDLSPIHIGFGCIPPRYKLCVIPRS
Sequence of Cytochrome P450 3A4 (P08684 whole entry): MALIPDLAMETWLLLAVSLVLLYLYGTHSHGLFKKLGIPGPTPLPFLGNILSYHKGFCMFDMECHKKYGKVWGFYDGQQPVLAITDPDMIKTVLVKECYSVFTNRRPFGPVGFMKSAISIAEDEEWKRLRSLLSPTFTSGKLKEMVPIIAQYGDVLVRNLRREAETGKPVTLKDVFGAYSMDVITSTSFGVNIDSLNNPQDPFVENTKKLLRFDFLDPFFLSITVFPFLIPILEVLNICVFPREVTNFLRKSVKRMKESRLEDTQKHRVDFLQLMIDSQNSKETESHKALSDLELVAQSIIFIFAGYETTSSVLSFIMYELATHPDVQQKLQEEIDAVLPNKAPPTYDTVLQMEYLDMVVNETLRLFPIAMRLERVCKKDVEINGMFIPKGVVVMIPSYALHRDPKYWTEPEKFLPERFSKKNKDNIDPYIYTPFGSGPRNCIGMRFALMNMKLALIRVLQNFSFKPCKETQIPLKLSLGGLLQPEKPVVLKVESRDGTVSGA
Sequence of Cytochrome P450 2C9 (P11712 whole entry): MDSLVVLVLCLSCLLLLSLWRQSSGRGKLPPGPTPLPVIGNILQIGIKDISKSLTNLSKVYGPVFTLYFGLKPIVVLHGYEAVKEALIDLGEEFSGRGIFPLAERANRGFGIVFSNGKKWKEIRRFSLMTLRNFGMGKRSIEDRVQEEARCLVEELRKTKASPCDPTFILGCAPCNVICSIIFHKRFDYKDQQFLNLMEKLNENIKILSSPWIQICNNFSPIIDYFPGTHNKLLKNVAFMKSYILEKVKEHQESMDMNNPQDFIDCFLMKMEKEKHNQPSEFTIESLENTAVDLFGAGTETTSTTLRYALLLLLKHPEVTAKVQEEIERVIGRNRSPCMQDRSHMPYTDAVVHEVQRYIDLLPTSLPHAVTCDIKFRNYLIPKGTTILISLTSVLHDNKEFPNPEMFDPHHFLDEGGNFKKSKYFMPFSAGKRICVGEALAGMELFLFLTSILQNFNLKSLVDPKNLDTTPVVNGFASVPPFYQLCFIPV

On to `Cc1cc(C(C)(C)C)c(O)c(C)c1CC1=NCCN1` [OXYMETAZOLINE], for which the Drug metabolism entry is reported as “metabolite_not_detected” on Cytochrome P450 2B6; “metabolite_not_detected” at Cytochrome P450 2C9; “metabolite_not_detected” on Cytochrome P450 2E1; “metabolite_not_detected” on Cytochrome P450 2D6; “metabolite_not_detected” on Cytochrome P450 3A4; “metabolite_detected” in data set [1]. Moreover, the Drug metabolism entry (in data set [2]; in data set [3]; in data set [4]; in the data set on Liver microsome [5]; with Liver microsome [6]; with Liver microsome [7]) was “metabolite_detected” throughout. In addition, the Drug metabolism result (with Liver microsome [8]; in data set [9]; in data set [10]) was “metabolite_detected” in each case.
